Assay results published in PMC3714282, “Pharmacometabolomics of Response to Sertraline and to Placebo in Major Depressive Disorder – Possible Role for Methoxyindole Pathway” (PLoS ONE, 2013).

Columns and labels:
[1] = test system: 5-Methoxytryptamine (5-MTPM); experiment: GCTOF-MS measurement of serum 5-Methoxytryptamine (5-MTPM): change from baseline at week 1 and week 4; assay type: in vivo, human; conditions: for Change in 5-MTPM levels / Change 5-MTPM: serum; for Change in 5-MTPM levels: four weeks; for Change 5-MTPM: log-transformed concentration
Protocol: Samples were analyzed using a liquid chromatography electrochemical array (LCECA) platform that has been extensively validated and used in our prior studies in neurodegenerative and psychiatric disorders [30]–[34]. The method includes multiple compounds from the tyrosine, tryptophan, sulfur amino acids and purine pathways, and markers of oxidative stress and protection (for the list of metabolites and abbreviations see Table 1). Levels of 5-Methoxytryptamine (5-MTPM) were measured using a gas chromatography time-of-flight-mass spectrometry (GCTOF-MS) platform. Samples were prepared for analysis as previously described. During the sample preparation, pools were created from equal volumes of subaliquots of all samples. Concentrations of metabolites in the individual samples were expressed as a percentage of the concentration of those metabolites in the averaged pool.
Data preprocessing: We first removed the metabolites that have more than 40% missing values. […] Principal components analysis (PCA; SIMCA-P+12.0) was used to identify outliers. The analysis was performed for each time point. […] Subjects with ≥3 standard deviations away from the center of data cloud within two principal components (PC's) scores scatter plot were considered outliers and were removed from further analysis.
These analyses were conducted separately for the sertraline and placebo groups. Between groups t-tests were used to compare baseline to one week and baseline to four week change scores between the sertraline and placebo groups.
(§1) Signatures of response to sertraline and placebo were identified by using paired t-tests to compare week 4 metabolite levels to baseline metabolite levels in the responders and non-responders to therapy. […] These analyses were also performed to evaluate changes in ratios of individual metabolites within (e.g., 5-HT/5-HTP) and between branches of tryptophan pathway (e.g., KYN/MEL).

outpatients with MDD = experiment: Randomized double-blind 4-week trial, response by 17-item Hamilton Rating Scale for Depression (HAMD17); assay type: in vivo, human
Source text: The 75 patients in this report were a subset of the 165 patients who entered a randomized, double-blind, flexible dosing, placebo-controlled study performed at 12 clinical sites. […] Subjects selected for this study were those with serum samples and HAMD17 scores available at baseline and 1 week and at 4 weeks (+/−1 week) after treatment. Finally, the subset of participants in this study largely overlaps with those used in our previous study.
Study participants were outpatients, 18–65 years of age, from various clinical sites across the United States. […] A complete description of the inclusion and exclusion used in this study can be found in Table S1. The study protocol was developed in accordance with the principles of the Declaration of Helsinki. All patients provided written informed consent. The study was sponsored and monitored by Pfizer, Inc. Each site's institutional review board approved and oversaw the study. The primary outcome measure was the HAMD17, used to assess depressive symptom severity. Measures were gathered at baseline, and weeks 1 and 4 of treatment at the patient's visits. Serum samples were collected using standard protocol at baseline, week 1 and week 4 of treatment at the clinic visits. Whole blood was collected in serum collection tubes and inverted 5–8 times. Serum samples were allowed to clot at room temperature for 60 minutes and then centrifuged at 1,300×g for 15 minutes. Following centrifugation supernatant was frozen at −80°C until analysis.
as §1

CN[C@H]1CC[C@@H](c2ccc(Cl)c(Cl)c2)c2ccccc21 [Sertraline, sertraline]
Change of 5-MTPM (average change of log-transformed concentration) ([1]; after four week of treatment, non-responders): -0.11 | Change of 5-MTPM (average change of log-transformed concentration) ([1]; after four week of treatment, responders): -0.42 | Change of 5-MTPM (average change of log-transformed concentration) ([1]; after one week of treatment, non-responders): -0.052 | Change in 5-MTPM levels ([1]; good responders to sertraline): significant decrease | Change in 5-MTPM levels ([1]; non-responders to sertraline): not significantly changed | Change 5-MTPM ([1]; after four weeks, sertraline group): −0.29 | Change 5-MTPM ([1]; after one week, responders to sertraline): -0.21 | APC, average percent change in HAMD17 score (outpatients with MDD; Female patients): Female: APC= -55% | APC, average percent change in HAMD17 score (outpatients with MDD; Non-White patients): Non-White: APC= -52% | response rate (responders: ≥50% reduction in HAMD17 scores) (outpatients with MDD; after four weeks, 21/35 patients, 50-150 mg/day): 60%
